What was measured:
[1] = refractive index (Na D-line) (dimensionless); mn = molality of the nth substance listed, in mol/kg; settings: 86.8 kPa, Liquid, Standard Abbe refractometry
[2] = mn = molality of the nth substance listed, in mol/kg; settings: 86.8 kPa, Liquid; for viscosity: Falling or rolling sphere viscometry; for speed of sound: Frequency=3 MHz, Sing-around technique in a fixed-path interferometer; for mass density: Vibrating tube method

CCCCn1cc[n+](C)c1.O=C([O-])c1ccccc1O [1-butyl-3-methylimidazolium salicylate] + O
Settings	mass density, [2] [kg/m3]	refractive index, [1]	speed of sound, [2] [m/s]	viscosity, [2] [mPa·s]
288.15 K, m1 = 0.1012	–	–	–	1.289
288.15 K, m1 = 0.1032	1004.94	1.3381	1484.4	1.296
288.15 K, m1 = 0.1055	1005.04	1.3383	1484.4	–
288.15 K, m1 = 0.2001	1010.28	1.3427	1499.1	–
288.15 K, m1 = 0.2005	1010.45	1.3429	1499.5	–
288.15 K, m1 = 0.2124	–	–	–	1.432
288.15 K, m1 = 0.2146	–	–	–	1.44
288.15 K, m1 = 0.2965	1015.79	1.3479	1513.9	–
288.15 K, m1 = 0.3002	1015.82	1.3479	1513.6	–
288.15 K, m1 = 0.3146	–	–	–	1.535
288.15 K, m1 = 0.3152	–	–	–	1.536
298.15 K, m1 = 0.1012	–	–	–	1.037
298.15 K, m1 = 0.1032	1002.65	1.3376	1512	1.042
298.15 K, m1 = 0.1055	1002.65	1.3376	1511.9	–
298.15 K, m1 = 0.2001	1007.67	1.342	1524.5	–
298.15 K, m1 = 0.2005	1007.91	1.342	1524.8	–
298.15 K, m1 = 0.2124	–	–	–	1.159
298.15 K, m1 = 0.2146	–	–	–	1.162
298.15 K, m1 = 0.2965	1012.99	1.3468	1537	–
298.15 K, m1 = 0.3002	1012.91	1.3468	1537	–
298.15 K, m1 = 0.3146	–	–	–	1.256
298.15 K, m1 = 0.3152	–	–	–	1.253
308.15 K, m1 = 0.1012	–	–	–	0.869
308.15 K, m1 = 0.1032	999.4	1.3365	1532.3	0.872
308.15 K, m1 = 0.1055	999.44	1.3365	1532.4	–
308.15 K, m1 = 0.2001	1004.28	1.3407	1543.5	–
308.15 K, m1 = 0.2005	1004.44	1.3408	1543.3	–
308.15 K, m1 = 0.2124	–	–	–	0.981
308.15 K, m1 = 0.2146	–	–	–	0.986
308.15 K, m1 = 0.2965	1009.39	1.3456	1553.8	–
308.15 K, m1 = 0.3002	1009.41	1.3455	1553.8	–
308.15 K, m1 = 0.3146	–	–	–	1.078
308.15 K, m1 = 0.3152	–	–	–	1.076
318.15 K, m1 = 0.1012	–	–	–	0.748
318.15 K, m1 = 0.1032	995.42	1.335	1546.8	0.751
318.15 K, m1 = 0.1055	995.43	1.3352	1547.3	–
318.15 K, m1 = 0.2001	1000.19	1.3393	1555.9	–
318.15 K, m1 = 0.2005	1000.27	1.3395	1556	–
318.15 K, m1 = 0.2124	–	–	–	0.87
318.15 K, m1 = 0.2146	–	–	–	0.876
318.15 K, m1 = 0.2965	1005.07	1.344	1565	–
318.15 K, m1 = 0.3002	1004.98	1.344	1564.8	–
318.15 K, m1 = 0.3146	–	–	–	0.962
318.15 K, m1 = 0.3152	–	–	–	0.96
